In US12540131B2 (Merck Sharp & Dohme LLC, priority 2019, dated 2026):

Target: GST tagged truncated human mutant G2019S LRRK2 (Homo sapiens (Human), UniProt Q5S007, G2019S)
Assay: LRRK2 Km ATP LanthaScreen Assay
Type: biochemical
Conditions: G2019S LRRK2, 134 μM ATP (Km ATP), mean values; for IC50: read-out: LRRK2 pIC50 (converted)
Protocol: General Experimental Information: • Unless otherwise noted, all reactions are magnetically stirred. Unless otherwise noted, when diethyl ether is used in the experiments described below, it is Fisher ACS certified material and is stabilized with BHT. Unless otherwise noted, “concentrated” and/or “solvent removed under reduced pressure” means evaporating the solvent from a solution or mixture using a rotary evaporator or vacuum pump. Unless otherwise noted, flash chromatography is carried out on a Teledyne Isco (Lincoln, NE), Analogix (Burlington, WI), or Biotage (Stockholm, SWE) automated chromatography system using a commercially available cartridge as the column. Columns may be purchased from Teledyne Isco, Analogix, Biotage, Varian (Palo Alto, CA), or Supelco (Bellefonte, PA) and are usually filled with silica gel as the stationary phase. Reverse phase prep-HPLC conditions, where used, can be found at the end of each experimental section. Aqueous solutions were concentrated on a Genevac (Ipswich, ENG) or by freeze-drying/lyophilization. Unless otherwise noted, all LRRK2 pIC50 data presented in tables refers to the LRRK2 G2019S Km ATP LanthaScreen™ assay (Life Technologies Corp., Carlsbad, CA) that is described in the Biological Assay section.
The pIC50 values reported herein were measured as follows.
Biological Assay: LRRK2 Km ATP LanthaScreen™ Assay
Compound potency against LRRK2 kinase activity was determined using LanthaScreen™ technology from Life Technologies Corporation (Carlsbad, CA) using a GST20 tagged truncated human mutant G2019S LRRK2 in the presence of the fluorescein-labeled peptide substrate LRRKtide® (LRRK2 phosphorylated ezrin/radixin/moesin (ERM)), also from Life Technologies. The data presented for the Km ATP LanthaScreen™ Assay represents mean IC50 values based on several test results and may have reasonable deviations depending on the specific conditions and reagents used. Km is the Michaelis constant of an enzyme and is defined as the concentration of native substrate (ATP for a kinase) which permits the enzyme to achieve half Vmax (Vmax=rate of reaction when the enzyme is saturated with substrate). IC50 (half-maximal inhibitory concentration) represents the concentration of inhibitor required to inhibit LRRK2 kinase activity by 50%. Assays were performed in the presence of 134 μM ATP (Km ATP). Upon completion, the assay was stopped, and phosphorylated substrate detected with a terbium (Tb)-labeled anti-pERM antibody (cat. no. PV4898). The compound dose response was prepared by diluting a 10 mM stock of compound to a maximum concentration of 9.99 μM in 100% DMSO, followed by custom fold serial dilution in DMSO nine times. 20 nL of each dilution was spotted via a Labcyte Echo onto a 384-well black-sided plate (Corning 3575) followed by 15 μl of a 1.25 nM enzyme solution in 1× assay buffer (50 mM Tris pH 8.5, 10 mM MgCl2, 0.01% Brij-35, 1 mM EGTA, 2 mM dithiothreitol, 0.05 mM sodium orthovanadate). Following a 15-minute incubation period at RT, the kinase reaction was started with the addition of 5 μl of 400 nM fluorescein-labeled LRRKtide® (LRRK2 phosphorylated ezrin/radixin/moesin (ERM)) peptide substrate and 134 μM ATP solution in 1× assay buffer. The reaction was allowed to progress at ambient temperature for 90 minutes. The reaction was then stopped by the addition of 20 μl of TR-FRET Dilution Buffer (Life Technologies, Carlsbad, CA) containing 2 nM Tb-labeled anti-phospho LRRKtide® (LRRK2 phosphorylated ezrin/radixin/moesin (ERM)) antibody and 10 mM EDTA (Life Technologies, Carlsbad, CA). After an incubation period of 1 h at RT, the plate was read on an EnVision® multimode plate reader (Perkin Elmer, Waltham, MA) with an excitation wavelength of 337 nm (Laser) and a reading emission at both 520 and 495 nm. Compound IC50 values were interpolated from nonlinear regression best-fits of the log of the final compound concentration, plotted as a function of the 520/495-nm emission ratio using activity base “Abase”). […]

Chain of GST tagged truncated human mutant G2019S LRRK2 (Q5S007 970-2527 G2019S): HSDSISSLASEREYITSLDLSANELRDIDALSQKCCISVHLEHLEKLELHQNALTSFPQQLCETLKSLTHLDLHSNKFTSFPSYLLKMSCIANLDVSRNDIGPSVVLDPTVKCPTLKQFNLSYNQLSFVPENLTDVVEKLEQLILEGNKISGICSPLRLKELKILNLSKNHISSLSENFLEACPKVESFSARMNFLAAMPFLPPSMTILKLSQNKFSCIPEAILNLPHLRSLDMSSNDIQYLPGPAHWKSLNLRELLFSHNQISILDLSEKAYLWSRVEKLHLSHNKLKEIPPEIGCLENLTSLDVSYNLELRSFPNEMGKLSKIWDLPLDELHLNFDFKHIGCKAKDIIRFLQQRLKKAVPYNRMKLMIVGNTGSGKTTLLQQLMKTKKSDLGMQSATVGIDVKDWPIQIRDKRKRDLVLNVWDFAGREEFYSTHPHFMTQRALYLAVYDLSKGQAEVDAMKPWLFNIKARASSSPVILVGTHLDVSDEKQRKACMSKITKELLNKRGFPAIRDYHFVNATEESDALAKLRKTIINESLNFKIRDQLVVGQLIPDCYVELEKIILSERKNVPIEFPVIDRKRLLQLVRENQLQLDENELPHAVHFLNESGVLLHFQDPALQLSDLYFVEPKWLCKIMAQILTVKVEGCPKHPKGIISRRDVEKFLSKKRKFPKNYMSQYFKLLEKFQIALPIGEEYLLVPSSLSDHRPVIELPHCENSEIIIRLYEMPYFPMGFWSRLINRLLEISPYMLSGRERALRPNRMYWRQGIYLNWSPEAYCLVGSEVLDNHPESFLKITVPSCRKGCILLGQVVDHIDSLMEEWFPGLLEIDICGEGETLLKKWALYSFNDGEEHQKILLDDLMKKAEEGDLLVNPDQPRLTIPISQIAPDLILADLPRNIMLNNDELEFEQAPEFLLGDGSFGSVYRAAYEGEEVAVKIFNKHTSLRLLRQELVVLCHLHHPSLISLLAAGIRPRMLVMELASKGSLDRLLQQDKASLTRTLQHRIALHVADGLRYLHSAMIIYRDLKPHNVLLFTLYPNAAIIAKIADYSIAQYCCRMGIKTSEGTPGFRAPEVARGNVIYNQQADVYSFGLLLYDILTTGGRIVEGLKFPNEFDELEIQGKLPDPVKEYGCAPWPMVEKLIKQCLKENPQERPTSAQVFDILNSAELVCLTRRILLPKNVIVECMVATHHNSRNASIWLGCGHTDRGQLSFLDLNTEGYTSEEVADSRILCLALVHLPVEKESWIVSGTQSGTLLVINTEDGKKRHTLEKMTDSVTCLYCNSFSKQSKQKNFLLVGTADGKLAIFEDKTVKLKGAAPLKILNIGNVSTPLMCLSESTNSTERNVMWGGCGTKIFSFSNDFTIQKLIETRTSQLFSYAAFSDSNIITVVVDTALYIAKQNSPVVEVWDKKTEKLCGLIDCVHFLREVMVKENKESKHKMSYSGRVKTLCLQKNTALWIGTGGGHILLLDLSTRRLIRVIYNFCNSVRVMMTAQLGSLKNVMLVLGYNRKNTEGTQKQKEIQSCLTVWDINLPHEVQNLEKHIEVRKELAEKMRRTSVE

SMILES | IC50 [nM] | LRRK2 pIC50
Cc1c(Nc2ncc3cc(Cl)c(C4CCN(C5CCCC5(F)F)CC4)cc3n2)cnn1C1CC1 (single isomer, unassigned) [Ex-1.22, (S) or (R) 6-chloro-N-(1-cyclopropyl-5-methyl-1H-pyrazol-4-yl)-7-[1-(2,2-difluorocyclopentyl)piperidin-4-yl]quinazolin-2-amine] | 7.94 | 
Cn1nc(C2CC2)cc1Nc1ncc2cc(Cl)c(C3CCN([C@@H]4COC[C@@H]4O)CC3)cc2n1 (single isomer, unassigned) [Ex-1.23, (3S,4S) or (3R,4R) 4-(4-{6-chloro-2-[(3-cyclopropyl-1-methyl-1H-pyrazol-5-yl)amino]quinazolin-7-yl}piperidin-1-yl)oxolan-3-ol] |  | 9.00
Cn1nc(C(F)(F)F)cc1Nc1ncc2cc(Cl)c(C3CCN([C@@H]4COC[C@@H]4O)CC3)cc2n1 (single isomer, unassigned) [Ex-1.24, (3S,4S) or (3R,4R) 4-[4-(6-chloro-2-{[1-methyl-3-(trifluoromethyl)-1H-pyrazol-5-yl]amino}quinazolin-7-yl)piperidin-1-yl]oxolan-3-ol] |  | 8.58
Cc1cc(Nc2ncc3cc(Cl)c(C4CCN([C@]5(C)COC[C@@H]5O)CC4)cc3n2)n(C)n1 (single isomer, unassigned) [Ex-1.25, (3S,4S) or (3R,4R) 4-(4-{6-chloro-2-[(1,3-dimethyl-1H-pyrazol-5-yl)amino]quinazolin-7-yl}piperidin-1-yl)-4-methyloxolan-3-ol] |  | 8.99
[2H]C([2H])([2H])n1ncc(Nc2ncc3cc(Cl)c(C4CCN([C@]5(C)COC[C@@H]5O)CC4)cc3n2)c1C (single isomer, unassigned) [Ex-1.26, (3S,4S) or (3R,4R)-4-(4-(6-chloro-2-((5-methyl-1-(methyl-d3)-1H-pyrazol-4-yl)amino)quinazolin-7-yl)piperidin-1-yl)-4-methyltetrahydrofuran-3-ol] |  | >9.20
[2H]C([2H])([2H])n1ncc(Nc2ncc3cc(Cl)c(C4CCN([C@]5(C)COC[C@@H]5O)CC4)cc3n2)c1Cl (single isomer, unassigned) [Ex-1.27, (3S,4S) or (3R,4R)-4-(4-(6-chloro-2-((5-chloro-1-(methyl-d3)-1H-pyrazol-4-yl)amino)quinazolin-7-yl)piperidin-1-yl)-4-methyltetrahydrofuran-3-ol] |  | >9.20
Cc1cc(Nc2ncc3cc(Cl)c(C4CCN([C@]5(C)COC[C@@H]5O)CC4)cc3n2)n(C2CC2)n1 (single isomer, unassigned) [Ex-1.28, (3S,4S) or (3R,4R) 4-(4-{6-chloro-2-[(1-cyclopropyl-3-methyl-1H-pyrazol-5-yl)amino]quinazolin-7-yl}piperidin-1-yl)-4-methyloxolan-3-ol] |  | 9.12
CC(C)(O)Cn1ncc(Nc2ncc3cc(Cl)c([C@@H]4CCN(C5(C)COC5)C[C@H]4F)cc3n2)c1Cl (single isomer, unassigned) [Ex-2.1, (3S,4S) or (3R,4R) 1-(5-chloro-4-((6-chloro-7-(3-fluoro-1-(3-methyloxetan-3-yl)piperidin-4-yl)quinazolin-2-yl)amino)-1H-pyrazol-1-yl)-2-methylpropan-2-ol] |  | 8.79
CC(C)(O)Cn1ncc(Nc2ncc3cc(Cl)c([C@@H]4CCN(C5(C)COC5)C[C@H]4F)cc3n2)c1Cl (single isomer, unassigned) [Ex-2.2, (3S,4S) or (3R,4R) 1-(5-chloro-4-((6-chloro-7-(3-fluoro-1-(3-methyloxetan-3-yl)piperidin-4-yl)quinazolin-2-yl)amino)-1H-pyrazol-1-yl)-2-methylpropan-2-ol] | < 0.631 | 
Cc1cc2cnc(Nc3cnn(C4CC4)c3Cl)nc2cc1C1CCN(C2COCC2O)CC1 (single isomer, unassigned) [Ex-2.4, (3S,4S) or (3R,4R)-(4-(4-(2-((5-chloro-1-cyclopropyl-1H-pyrazol-4-yl)amino)-6-methylquinazolin-7-yl)piperidin-1-yl)tetrahydrofuran-3-ol] |  | >9.20
CC1(N2CCC(n3cc(Nc4ncc5cc(Cl)c(C6CC67CC7)cc5n4)cn3)CC2)COC1 (single isomer, unassigned) [Ex-2.5, (S) or (R) 6-chloro-N-{1-[1-(3-methyloxetan-3-yl)piperidin-4-yl]-1H-pyrazol-4-yl}-7-(spiro[2.2]pentan-1-yl)quinazolin-2-amine] | 2.19 | 
CC1(N2CCC(n3cc(Nc4ncc5cc(Cl)c(C6CC67CC7)cc5n4)cn3)CC2)COC1 (single isomer, unassigned) [Ex-2.6, (S) or (R) 6-chloro-N-{1-[1-(3-methyloxetan-3-yl)piperidin-4-yl]-1H-pyrazol-4-yl}-7-(spiro[2.2]pentan-1-yl)quinazolin-2-amine] | < 0.631 | 
CC1(N2CC3(CC(n4cc(Nc5ncc6cc(Cl)c(C7CC78CC8)cc6n5)cn4)C3)C2)COC1 (single isomer, unassigned) [Ex-2.7, (S) or (R) 6-chloro-N-{1-[2-(3-methyloxetan-3-yl)-2-azaspiro[3.3]heptan-6-yl]-1H-pyrazol-4-yl}-7-(spiro[2.2]pentan-1-yl)quinazolin-2-amine] | 0.813 | 
CC1(N2CC3(CC(n4cc(Nc5ncc6cc(Cl)c(C7CC78CC8)cc6n5)cn4)C3)C2)COC1 (single isomer, unassigned) [Ex-2.8, (S) or (R) 6-chloro-N-{1-[2-(3-methyloxetan-3-yl)-2-azaspiro[3.3]heptan-6-yl]-1H-pyrazol-4-yl}-7-(spiro[2.2]pentan-1-yl)quinazolin-2-amine] | 1.26 | 
CC1(N2CCC(n3ncc(Nc4ncc5cc(Cl)c(C6CC67CCC7)cc5n4)c3Cl)CC2)COC1 (single isomer, unassigned) [Ex-2.9, (S) or (R) 6-chloro-N-{5-chloro-1-[1-(3-methyloxetan-3-yl)piperidin-4-yl]-1H-pyrazol-4-yl}-7-(spiro[2.3]hexan-1-yl)quinazolin-2-amine] | 36.3 | 
CC1(Cn2ncc(Nc3ncc4cc(Cl)c([C@@H]5CCN(C6COC6)C[C@H]5F)cc4n3)c2Cl)COC1 (single isomer, unassigned) [Ex-2.11, (3S,4S) or (3R,4R) 6-chloro-N-{5-chloro-1-[(3-methyloxetan-3-yl)methyl]-1H-pyrazol-4-yl}-7-[3-fluoro-1-(oxetan-3-yl)piperidin-4-yl]quinazolin-2-amine] |  | 9.10
CC1(Cn2ncc(Nc3ncc4cc(Cl)c([C@H]5CCN(C6COC6)C[C@@H]5F)cc4n3)c2Cl)COC1 (single isomer, unassigned) [Ex-2.12, (3S,4S) or (3R,4R) 6-chloro-N-{5-chloro-1-[(3-methyloxetan-3-yl)methyl]-1H-pyrazol-4-yl}-7-[3-fluoro-1-(oxetan-3-yl)piperidin-4-yl]quinazolin-2-amine] |  | >9.20
Cc1c(Nc2ncc3cc(Cl)c(C4CCN(C5COC5)CC4)cc3n2)cnn1C1CCOC1 (single isomer, unassigned) [Ex-2.23, (S) or (R) 6-chloro-N-[5-methyl-1-(oxolan-3-yl)-1H-pyrazol-4-yl]-7-[1-(oxetan-3-yl)piperidin-4-yl]quinazolin-2-amine] | 1.15 | 
Cc1c(Nc2ncc3cc(Cl)c(C4CCN(C5COC5)CC4)cc3n2)cnn1C1CCOC1 (single isomer, unassigned) [Ex-2.24, (S) or (R) 6-chloro-N-[5-methyl-1-(oxolan-3-yl)-1H-pyrazol-4-yl]-7-[1-(oxetan-3-yl)piperidin-4-yl]quinazolin-2-amine] | 0.741 | 
